Activity calls are given as the source filed them. The rule behind the calls is not given here. Starred links: 1 amine or outer side, 2 acyl side, 3 side chain; linkers in the order of their positions; H or OH if unused. Positions of bridges follow the written chain, without caps; N, C: chain ends. Non-standard residues stand in square brackets, D forms with d. Residues, ends and D or L forms follow the SMILES beside them. Chains are numbered I, II in the order given. Actinocin(9to1) = Cc1c2oc3c(C)ccc(C(=O)[*:1])c3nc-2c(C(=O)[*:2])c(N)c1=O; NMeV = CN[C@H](C(=O)O)C(C)C; Sar = CNCC(=O)O
Tests used:
MONO-MAC-6 = assay: Cytotoxicity against human MONO-MAC-6 cells after 24 hrs by MTT assay; type: functional, cell-based; settings: MONO-MAC-6, 24 h
Monocyte [1] = assay: Cytotoxicity against human primary monocytes up to 1 uM after 24 hrs by MTT assay; type: functional
THP-1 = assay: Cytotoxicity against human THP1 cells after 24 hrs by MTT assay; type: functional, cell-based; settings: THP-1, 24 h
[2] = Cytotoxicity against human primary monocytes after 24 hrs by MTT assay; type: functional; settings: Monocyte
K562 = assay: Cytotoxicity against human K562 cells after 24 hrs by MTT assay; type: functional, cell-based; settings: K562, 24 h
HeLa [3] = assay: Cytotoxicity against human HeLa cells after 24 hrs by MTT assay; type: functional, cell-based
Monocyte [4] = assay: Induction of cell death in human primary monocytes at 3 uM after 4 hrs by LDH release assay; type: functional, cell-based
Monocyte [5] = assay: Cytotoxicity against human primary monocytes at 0.001 to 1 uM after 24 hrs by MTT assay; type: functional
HeLa [6] = assay: Cytotoxicity against human HeLa cells at 0.001 to 1 uM after 24 hrs by MTT assay; type: functional, cell-based
Monocyte [7] = assay: Cytotoxicity against human primary monocytes assessed as reduction in cell viability at 3 uM after 2 hrs by inverse MTT assay; type: functional
HeLa [8] = assay: Cytotoxicity against human HeLa cells assessed as reduction in cell viability at 3 uM after 2 hrs by inverse MTT assay; type: functional, cell-based
Monocyte [9] = assay: Cytotoxicity against human primary monocytes assessed as reduction in cell viability at 3 uM after 18 hrs by inverse MTT assay; type: functional
HeLa [10] = assay: Cytotoxicity against human HeLa cells assessed as reduction in cell viability at 3 uM after 18 hrs by inverse MTT assay; type: functional, cell-based
Monocyte [11] = assay: Induction of apoptosis in human primary monocytes assessed as nuclear fragmentation at 3 uM after 3 hrs by light microscopy; type: functional, cell-based
Monocyte [12] = assay: Induction of apoptosis in human primary monocytes assessed as apoptotic bodies formation at 3 uM after 3 hrs by light microscopy; type: functional, cell-based
Monocyte [13] = assay: Induction of apoptosis in human primary monocytes at 3 uM by PE Annexin V and 7-aminoactinomycin staining based flow cytometry; type: functional, cell-based
Monocyte [14] = assay: Induction of necrosis in human primary monocytes at 3 uM by PE Annexin V and 7-aminoactinomycin staining based flow cytometry; type: functional, cell-based
Monocyte [15] = assay: Cytotoxicity against human primary monocytes assessed as reduction in cell viability at 25 uM after 2 to 5 hrs by inverse MTT assay; type: functional
HeLa [16] = assay: Cytotoxicity against human HeLa cells assessed as reduction in cell viability at 25 uM after 2 to 5 hrs by inverse MTT assay; type: functional, cell-based
Monocyte [17] = assay: Cytotoxicity against human primary monocytes assessed as reduction in cell viability at 25 uM after 18 hrs by inverse MTT assay; type: functional
HeLa [18] = assay: Cytotoxicity against human HeLa cells assessed as reduction in cell viability at 25 uM after 18 hrs by inverse MTT assay; type: functional, cell-based
[19] = Reduction in metabolic activity in mitochondria isolated from human MONO-MAC-6 cells after 3 hrs at 10 uM by MTT assay; type: functional
Monocyte [20] = assay: Cytotoxicity against human primary monocytes assessed as reduction in cell viability at 1 uM after 2 to 5 hrs by inverse MTT assay; type: functional
HeLa [21] = assay: Cytotoxicity against human HeLa cells assessed as reduction in cell viability at 1 uM after 2 to 5 hrs by inverse MTT assay; type: functional, cell-based
Monocyte [22] = assay: Cytotoxicity against human primary monocytes assessed as reduction in cell viability at 1 uM after 18 hrs by inverse MTT assay; type: functional
HeLa [23] = assay: Cytotoxicity against human HeLa cells assessed as reduction in cell viability at 1 uM after 18 hrs by inverse MTT assay; type: functional, cell-based
Monocyte [24] = assay: Induction of cell death in human primary monocytes at 0.1 to 10 uM after 4 hrs by LDH release assay; type: functional, cell-based
[25] = Cytotoxicity against human primary monocytes assessed as reduction in cell viability at 5 uM after 2 hrs by inverse MTT assay; type: functional, Monocyte
HeLa [26] = assay: Cytotoxicity against human HeLa cells assessed as reduction in cell viability at 5 uM after 2 hrs by inverse MTT assay; type: functional
Monocyte [27] = assay: Induction of necrosis in human primary monocytes at 5 uM after 1 to 3 hrs by light microscopy; type: functional, cell-based
Monocyte [28] = assay: Induction of morphological changes in human primary monocytes assessed as blebs formation at 5 uM after 15 mins by light microscopy; type: functional, cell-based
Monocyte [29] = assay: Induction of morphological changes in human primary monocytes assessed as blebs formation at 5 uM after 1 hr by light microscopy; type: functional, cell-based
Monocyte [30] = assay: Induction of morphological changes in human primary monocytes assessed as plasma membrane rupture at 5 uM after 1 hr by light microscopy; type: functional, cell-based
Monocyte [31] = assay: Induction of necrosis in human primary monocytes at 5 uM by PE Annexin V and 7-aminoactinomycin staining based flow cytometry; type: functional, cell-based
Monocyte [32] = assay: Induction of apoptosis in human primary monocytes at 5 uM by PE Annexin V and 7-aminoactinomycin staining based flow cytometry; type: functional, cell-based
[33] = Reduction in metabolic activity in mitochondria isolated from human MONO-MAC-6 cells after 3 hrs up to 10 uM by MTT assay; type: functional; set-up: scale not given: the % may be the effect or the level left

In the case of `CC[C@H](C)[C@H](NC(=O)[C@H]1CCCCN1C)C(=O)N(C)[C@H](CCc1nc(C(=O)N[C@@H](Cc2ccccc2)C[C@H](C)C(=O)O)cs1)C(C)C`, the EC50 (MONO-MAC-6) is reported as 0.03 µM and the Activity (Monocyte [1]) is reported as “inactive”.
In the case of `COc1cc(C)c(C(=O)O[C@@H]2C[C@@]3(C)C2=C(C=O)[C@@H](O)[C@@H]2CC(C)(C)C[C@@H]23)c(O)c1`, the EC50 (THP-1) is reported as 2.4 µM, the EC50 (MONO-MAC-6) is reported as 2.9 µM and the EC50 [2] is reported as 3.1 µM. For the same compound, the EC50 (K562) was 4.1 µM and the EC50 (HeLa [3]) was 12.3 µM.
In the case of `CN[C@@H]1C[C@H]2O[C@@](C)([C@@H]1OC)n1c3ccccc3c3c4c(c5c6ccccc6n2c5c31)C(=O)NC4`, the Activity (Monocyte [4]) is reported as “Active”, the Activity (Monocyte [5]) is reported as “inactive” and the Activity (HeLa [6]) is reported as “Active”. The Activity (Monocyte [7]) was “inactive”, the Activity (HeLa [8]) was “inactive” and the Activity (Monocyte [9]) was “Active”. For the same compound, the Activity (HeLa [10]) was “Active”, the Activity (Monocyte [11]) was “Active” and the Activity (Monocyte [12]) was “Active”. The Activity (Monocyte [13]) was “Active” and the Activity (Monocyte [14]) was “inactive”.
In the case of `C[C@@H]1C[C@@H]([C@H](O)CC2CC(=O)NC(=O)C2)C(=O)[C@@H](C)C1`, the Activity (Monocyte [15]) is reported as “inactive”, the Activity (HeLa [16]) is reported as “inactive” and the Activity (Monocyte [17]) is reported as “Active”. For the same compound, the Activity (HeLa [18]) was “Active”.
For `N#CC(C#N)=NNc1cccc(Cl)c1`, the Activity [19] was “Active”.
With `Cc1c2oc3c(C)ccc(C(=O)N[C@@H]4C(=O)N[C@H](C(C)C)C(=O)N5CCC[C@H]5C(=O)N(C)CC(=O)N(C)[C@@H](C(C)C)C(=O)O[C@@H]4C)c3nc-2c(C(=O)N[C@@H]2C(=O)N[C@H](C(C)C)C(=O)N3CCC[C@H]3C(=O)N(C)CC(=O)N(C)[C@@H](C(C)C)C(=O)O[C@@H]2C)c(N)c1=O` (I: T[dV]P[Sar][NMeV] / II: T[dV]P[Sar][NMeV]; ester I:1-I:C, II:1-II:C; linker I:N-II:N via Actinocin(9to1)) the Activity (Monocyte [20]) was “inactive”, the Activity (HeLa [21]) was “inactive” and the Activity (Monocyte [22]) was “Active”. The Activity (HeLa [23]) was “Active”.
In the case of `COc1cc(O)c(C(=O)O[C@@H]2C[C@]3(C)[C@H]4CC(C)(C)C[C@H]4C=C(C=O)[C@]23O)c(C)c1Cl` [ARMILLARIDIN], the EC50 (THP-1) is reported as 4.5 µM, the EC50 (MONO-MAC-6) is reported as 5.6 µM and the EC50 [2] is reported as 12.3 µM. The EC50 (K562) was 8.9 µM and the EC50 (HeLa [3]) was 9.2 µM.
Work on `COc1cc(C)c(C(=O)O[C@@H]2C[C@]3(C)[C@H]4CC(C)(C)C[C@H]4C=C(C=O)[C@]23O)c(O)c1` [ARMILLARIN] yielded an EC50 (THP-1) of 4.8 µM, an EC50 (MONO-MAC-6) of 6.6 µM and an EC50 [2] of 43.2 µM. The EC50 (K562) was 23.7 µM and the EC50 (HeLa [3]) was 16.7 µM.
Compound `COc1cc(O)c(C(=O)O[C@@H]2C[C@@]3(C)C2=C(C=O)[C@@H](O)[C@@H]2CC(C)(C)C[C@@H]23)c(C)c1Cl` [ARNAMIAL] has an EC50 (THP-1) of 2.9 µM, an EC50 (MONO-MAC-6) of 3.2 µM and an EC50 [2] of 3.8 µM. The EC50 (K562) was 2.3 µM and the EC50 (HeLa [3]) was 4.9 µM.
Compound `Cc1cc(O)cc(O)c1C(=O)O[C@@H]1C[C@@]2(C)C1=C(C=O)[C@@H](O)[C@@H]1CC(C)(C)C[C@@H]12` [DEHYDROARMILLYLORSELLINATE] has an EC50 (THP-1) of 3 µM, an EC50 (MONO-MAC-6) of 4.2 µM and an EC50 [2] of 2.3 µM. For the same compound, the EC50 (K562) was 5 µM, the EC50 (HeLa [3]) was 1.6 µM and the Activity (Monocyte [24]) was “Active”. The Activity [25] was 40%, the Activity (HeLa [26]) was 40% and the Activity (Monocyte [27]) was “Active”. For the same compound, the Activity (Monocyte [28]) was “Active”, the Activity (Monocyte [29]) was “Active” and the Activity (Monocyte [30]) was “Active”. For the same compound, the Activity (Monocyte [31]) was “Active”, the Activity (Monocyte [32]) was “inactive” and the Activity [33] was 50%.
In the case of `COc1cc(O)c(C(=O)O[C@@H]2C[C@]3(C)[C@H]4[C@@H](O)C(C)(C)C[C@@]4(O)C=C(CO)[C@]23O)c(C)c1Cl` [MELLEOLIDE D], the EC50 (THP-1) is reported as greater than 100 µM, the EC50 (MONO-MAC-6) is reported as 48.6 µM and the EC50 [2] is reported as 60.7 µM. The EC50 (K562) was greater than 100 µM, the EC50 (HeLa [3]) was greater than 100 µM and the Activity (Monocyte [24]) was “inactive”.

From ChEMBL document CHEMBL3351698, “Melleolides induce rapid cell death in human primary monocytes and cancer cells” (Bioorg Med Chem, 2014)
